Data reported in patent US20220257805A1, “PHARMACEUTICAL FORMULATIONS AND METHODS FOR DELIVERING A THERAPEUTIC, DIAGNOSTIC, OR IMAGING AGENT TO CD206” (Syracuse University, priority 2019, published 2022).
pKd: −log10 of the molar value. Entries after “also recorded” stand apart in the source; their conditions may differ.

Tests used:
human gastric IF = target: T1, human gastric IF (Homo sapiens, UniProt P27352); test: IF binding affinity, radiometric chase assay using 57Co-B12; conditions: cold tracer
T1 construct: purchased Xeragenx LLC (St. Louis, Mo., USA); host or cells: Arabidopsis thaliana
T1 sequence (P27352 19-417): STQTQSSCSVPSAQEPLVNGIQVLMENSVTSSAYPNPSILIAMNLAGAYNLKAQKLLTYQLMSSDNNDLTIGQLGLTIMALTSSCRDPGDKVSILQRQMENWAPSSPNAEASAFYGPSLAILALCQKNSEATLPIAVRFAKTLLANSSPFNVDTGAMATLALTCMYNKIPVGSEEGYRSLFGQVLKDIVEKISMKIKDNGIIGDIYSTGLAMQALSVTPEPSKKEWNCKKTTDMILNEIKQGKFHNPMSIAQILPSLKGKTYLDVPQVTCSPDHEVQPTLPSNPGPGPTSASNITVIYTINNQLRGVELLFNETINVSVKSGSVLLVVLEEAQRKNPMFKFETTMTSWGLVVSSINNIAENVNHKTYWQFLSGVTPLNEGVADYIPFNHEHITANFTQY
Procedure: To confirm IF binding of ^89Zr-B12, a radiometric chase assay[15] was completed with a ‘cold’ ^91Zr bound to B12 tracer (^91Zr-B12) and compared to free B12, as cyanocobalamin (CN-B12) (FIG. 2). ^91Zr-B12 was made using B12-DFO and chelated to ^91ZrCl4 at pH 7-7.5. IF binding of ^91Zr-B12 was maintained at low nanomolar levels (1.57 nM), similar to CN-B12 control (1.36 nM).
IF binding affinities: To confirm that ^89Zr-B12 will bind to IF, a radiometric chase assay, using ^57Co-B12 was completed (as previously reported)[15] with a cold tracer (^91Zr-B12) and compared to free B12, as cyanocobalamin (CN-B12). Zr-B12 was made using B12-DFO and chelated to ZrCl4 at pH 7.5.

HepG2 cells = test: Flow cytometry of uptake in HepG2 cells (ASGPR positive); assay type: cell-based; conditions: 100 nM in HBSS
Procedure: (§1) Cellular association via the typical holo-IF target receptor, CUBN, was conducted in CUBN positive, CD206 negative (see western blot, FIG. 10) BN16 (Brown Norway rat yolk) cells via flow cytometry using fluorescent B12-Cy5 to show functionalization of the IF-B12 complex in vitro (FIG. 3).
(§2) Flow cytometry: Flow cytometry analyses were carried out on a Becton Dickinson LSRII Cell Analyzer.
(§3) Cell culture: Cell lines J774A.1 (ATCC TIB-67; CD206 positive), CHO-K1 (ATCC CCL-61; control line) and HepG2 (SIGMA 85011430; ASGPR positive) were obtained from the American Type Culture Collection (ATCC). BN16 cells (cubilin positive) were kindly provided by Prof. Pierre Verroust (INSERM, Paris, France). J774A.1 and BN16 cells were cultured as adherent monolayers in DMEM supplemented with 10% FBS and 1% pen/strep (Penicillin-streptomycin solution with 10,000 units penicillin and 10 mg/mL streptomycin in 0.9% NaCl obtained from Thermo Fisher). CHO-K1 were cultured as adherent monolayers in F12-K supplemented with 10% FBS and 1% pen/strep. Cells were incubated at 37° C. with 5% C02. Hank's balanced salt solution (HBSS) was purchased from Sigma. […]
(§4) Flow cytometry measurements of cellular internalization: Cells were plated on a 6-well plate and allowed to adhere for at least 24 h until at least 80% confluency. […] All cells were excited at 640 nm and detected at 660±20 nm.

CHO-K1 cells = test: Flow cytometry of uptake in CHO-K1 cells (CUBN and CD206 free); assay type: cell-based, Chinese hamster; conditions: 100 nM in HBSS
Procedure: as §1, §2, §3, §4

BN16 cells = test: Flow cytometry of cellular association in BN16 cells (CUBN positive, CD206 negative); assay type: cell-based, Brown Norway rat; conditions: 200 nM, HBSS, 1 h
Procedure: as §1, §2, §3, §4

J774A.1 cells = test: Flow cytometry of uptake in J774A.1 macrophage cells (CUBN-, CD206+), with or without mannan block; assay type: cell-based
Procedure: Adding mannan (2 mg/mL), 45 minutes prior to, and concomitant with IF-B12-Cy5 incubation, reduced IF-B12-Cy5 uptake (FIG. 3) supporting a mannose receptor mediated process.
as §2
Cell culture: Cell lines J774A.1 (ATCC TIB-67; CD206 positive), CHO-K1 (ATCC CCL-61; control line) and HepG2 (SIGMA 85011430; ASGPR positive) were obtained from the American Type Culture Collection (ATCC). BN16 cells (cubilin positive) were kindly provided by Prof. Pierre Verroust (INSERM, Paris, France). J774A.1 and BN16 cells were cultured as adherent monolayers in DMEM supplemented with 10% FBS and 1% pen/strep (Penicillin-streptomycin solution with 10,000 units penicillin and 10 mg/mL streptomycin in 0.9% NaCl obtained from Thermo Fisher). CHO-K1 were cultured as adherent monolayers in F12-K supplemented with 10% FBS and 1% pen/strep. Cells were incubated at 37° C. with 5% C02. Hank's balanced salt solution (HBSS) was purchased from Sigma. Charcoal stripped fetal bovine serum (FBS) and were purchased from Sigma.
as §4

Substance	pKd (human gastric IF)	uptake / internalization (flow cytometry) (HepG2 cells)	uptake / internalization (flow cytometry) (CHO-K1 cells)	cellular association (flow cytometry) at 4° C. (BN16 cells; 4° C.)	cellular association (flow cytometry) (BN16 cells; 37° C.)	binding / uptake (flow cytometry) (J774A.1 cells; 200 nM, HBSS, 1 h, 37° C.)	uptake with mannan block (J774A.1 cells; mannan 2 mg/mL 45 minutes prior to and concomitant with incubation)
cyanocobalamin [CN-B12]	8.87	–	–	–	–	–	–
IF-B12-Cy5: B12-Cy5 bound to recombinant human intrinsic factor (IF-B12 complex)	–	not internalized	Neither compound was internalized	Reduction in binding (or internalization)	significant association	binding	reduced; also recorded: near complete block in uptake
